Results reported in ChEMBL document CHEMBL4000204, “Improving potency and metabolic stability by introducing an alkenyl linker to pyridine-based histone deacetylase inhibitors for orally available RUNX3 modulators” (Eur J Med Chem, 2017).

How the values were obtained:
[1] = in vitro; details: mouse, liver microsomes
[2] = in vitro; details: mouse, liver microsomes; remark: listed apart in the source

SMILES	remaining at 0.5 h, 1000 µM [1]	remaining at 0.5 h, 1000 µM [2]
O=C(/C=C/c1cccn(CCCc2ccc3ccccc3c2)c1=O)NO	90.3%	35.5%
O=C1CC2(CCCC2)CC(=O)N1CCCCN1CCN(c2ncccn2)CC1 [BUSPIRONE]	99.1%	0.29%
